Where two headings read alike, the source gives them in different places. *1 amine or outer side, *2 acyl side, *3 side chain or, on linkers, in order; H or OH if unused. Where a SMILES comes first, the peptide text is derived from it. Bridges are numbered along the chain shown (N, C = ends). [ ]: non-standard residue; d: D form. The star is where a group is joined. X198 = COC[C@H]1COCCN1c1ccc(-c2ccc(Cl)cc2C[C@@H](C(=O)[*:2])N(C)[*:1])cc1; X137 = CN([C@@H](Cc1cc(F)ccc1-c1cnn(S(C)(=O)=O)c1)C(=O)[*:2])[*:1]; NMehhhLys(Me) = CN([C@@H](CCCCCCCN(C)[*:3])C(=O)[*:2])[*:1]; X117 = Cc1cc(-c2ccc(F)cc2C[C@@H](C(=O)[*:2])N(C)[*:1])cnn1; X135 = CN([C@@H](Cc1cc(Cl)ccc1-c1cn(C)cn1)C(=O)[*:2])[*:1]; NMe3Pal(2-OcPr,5-F) = CN[C@@H](Cc1cc(F)cnc1OC1CC1)C(=O)O; X163 = CN([C@@H](Cc1cc(Cl)ccc1N1CCOCC1)C(=O)[*:2])[*:1]; X204 = CN([C@@H](Cc1cc(F)ccc1-c1ccnnc1)C(=O)[*:2])[*:1]; NMe(hhhLys) = CN([C@@H](CCCCCCCN[*:3])C(=O)[*:2])[*:1]; NMe3Pal(2-OMe,5-Cl) = CN[C@@H](Cc1cc(Cl)cnc1OC)C(=O)O; Oxane2carbonyl(2R-CF3) = O=C([C@@]1(C(F)(F)F)CCCCO1)*; Cyclobutanecarbonyl(1-CF3) = O=C(C1(C(F)(F)F)CCC1)*; cBuCO(3,3-F2-1-CF3) = O=C(C1(C(F)(F)F)CC(F)(F)C1)*; Pro(trans-4-F) = O=C(O)[C@@H]1C[C@@H](F)CN1; Gly(cPr) = N[C@H](C(=O)O)C1CC1
Key:
[1] = test system: OVCAR3 cells; experiment: MTT proliferation assay, OVCAR3; format: cell-based; details: 5 days compound exposure, 1:3 serial dilution starting at 10 μM;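 note: compound given as an 8- or 10-point series, one day after plating, with exposure covering roughly 3-4 cell doublings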
[2] = molecular target: T1, CyclinE1/CDK2 (Homo sapiens, UniProt P24864); experiment: Fluorescence Polarization (FP) competitive binding assay, Cyclin E1/Cdk2;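 note: readings taken after two-hour equilibration at room temperature in HEPES buffer with NaCl, DTT, NP-40 and BSA, IC50 fitted from eight-concentration serial dilution series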
T1 construct: purchased Eurofins, discovery 14-475

[3] = test system: NCI-H1048 cells; experiment: MTT proliferation assay, NCI-H1048; format: cell-based; details: 5 days compound exposure, 1:3 serial dilution starting at 10 μM;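 note: Dose-response in 96-well plates over 8 or 10 concentration points, with exposure spanning 3-4 cell doublings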
[4] = molecular target: T2, CyclinB1/CDK1 (Homo sapiens, UniProt P14635); experiment: Fluorescence Polarization (FP) competitive binding assay, Cyclin B1/Cdk1;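 note: fluorescence polarization read after equilibration at room temperature, with IC50 taken from serially diluted dose-response curves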
T2 construct: purchased Eurofins, discovery 14-450

[5] = molecular target: T3, CyclinA2/CDK2 (Homo sapiens, UniProt P20248); experiment: Fluorescence Polarization (FP) competitive binding assay, Cyclin A2/Cdk2;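 note: plates equilibrated two hours at room temperature before polarization reading, IC50 fitted from eight-concentration compound titration curves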
T3 construct: purchased CRELUX Protein Services

[6] = 10 nM Cyclin E1/Cdk2, 2 nM FAM probe, average of 2-3 independent experiments, read-out: Cyclin E FP IC50
[7] = 10 nM Cyclin B1/Cdk1, 2 nM FAM probe; average of 2-3 independent experiments; read-out: Cyclin B FP IC50
[8] = 8 nM Cyclin A2/Cdk2, 2 nM FAM probe, average of 2-3 independent experiments, read-out: Cyclin A FP IC50

Structure (SMILES) | GI50 [1] [nM] | IC50 [2, 6] [nM] | GI50 [3] [nM] | IC50 [4, 7] [nM] | IC50 [5, 8] [nM] | IC50 [2] [nM] | IC50 ([4]; read-out: Cyclin B FP IC50; 10 nM Cyclin B1/Cdk1, 2 nM FAM probe; average of 2-3 independent experiments) [nM] | IC50 [5] [nM]
COC[C@H]1COCCN1c1ccc(-c2ccc(Cl)cc2C[C@H]2C(=O)N(C)CCCCCCC[C@H](N(C)C(=O)[C@@H](NC(=O)[C@@H]3C[C@@H](F)CN3C(=O)C3(C(F)(F)F)CC(F)(F)C3)C3CC3)C(=O)N[C@@H](CC(C)C)C(=O)N2C)cc1 [Example 373] ({cBuCO(3,3-F2-1-CF3)}-[Pro(trans-4-F)][Gly(cPr)][NMehhhLys(Me)]L[X198]; lactam 3-C) | 10 | 480 | 10 | 20 | 20 | – | – | –
CC(C)C[C@@H]1NC(=O)[C@@H](N(C)C(=O)[C@@H](NC(=O)[C@@H]2C[C@@H](F)CN2C(=O)[C@@]2(C(F)(F)F)CCCCO2)C2CC2)CCCCCCCN(C)C(=O)[C@H](Cc2cc(F)ccc2-c2cnn(S(C)(=O)=O)c2)N(C)C1=O [Example 303] ({Oxane2carbonyl(2R-CF3)}-[Pro(trans-4-F)][Gly(cPr)][NMehhhLys(Me)]L[X137]; lactam 3-C) | 10 | 100 | 10 | 20 | 30 | – | – | –
CC(C)C[C@@H]1NC(=O)[C@@H](N(C)C(=O)[C@@H](NC(=O)[C@@H]2C[C@@H](F)CN2C(=O)C2(C(F)(F)F)CC(F)(F)C2)C2CC2)CCCCCCCN(C)C(=O)[C@H](Cc2cc(Cl)ccc2N2CCOCC2)N(C)C1=O [Example 319] ({cBuCO(3,3-F2-1-CF3)}-[Pro(trans-4-F)][Gly(cPr)][NMehhhLys(Me)]L[X163]; lactam 3-C) | 20 | 1350 | 10 | 20 | 30 | – | – | –
CC(=O)N1CC=C(c2ccc(F)cc2C[C@H]2C(=O)N(C)CCCCC=CC[C@H](N(C)C(=O)[C@@H](NC(=O)[C@@H]3C[C@@H](F)CN3C(=O)C3(C(F)(F)F)CCC3)C3CC3)C(=O)N[C@@H](CC(C)C)C(=O)N2C)CC1 [Example 42] | 210 | 440 | 70 | 20 | 40 | – | – | –
CC(C)C[C@@H]1NC(=O)[C@@H](N(C)C(=O)[C@@H](NC(=O)[C@@H]2C[C@@H](F)CN2C(=O)C2(C(F)(F)F)CC(F)(F)C2)C2CC2)CCCCCCCNC(=O)[C@H](Cc2cc(F)ccc2-c2ccnnc2)N(C)C1=O [Example 290] ({cBuCO(3,3-F2-1-CF3)}-[Pro(trans-4-F)][Gly(cPr)][NMe(hhhLys)]L[X204]; lactam 3-C) | 150 | 1790 | 80 | 20 | 120 | – | – | –
CC(C)C[C@@H]1NC(=O)[C@@H](N(C)C(=O)[C@@H](NC(=O)[C@@H]2C[C@@H](F)CN2C(=O)C2(C(F)(F)F)CC(F)(F)C2)C2CC2)CC=CCCCCN(C)C(=O)[C@H](Cc2cc(F)ccc2-c2cnn(C)c2)N(C)C1=O [Example 37] | 50 | 370 | 40 | 20 | 50 | – | – | –
COc1ncc(Cl)cc1C[C@H]1C(=O)NCCCCCCC[C@H](N(C)C(=O)[C@@H](NC(=O)[C@@H]2C[C@@H](F)CN2C(=O)C2(C(F)(F)F)CC(F)(F)C2)C2CC2)C(=O)N[C@@H](CC(C)C)C(=O)N1C [Example 275] ({cBuCO(3,3-F2-1-CF3)}-[Pro(trans-4-F)][Gly(cPr)][NMe(hhhLys)]L[NMe3Pal(2-OMe,5-Cl)]; lactam 3-C) | 10 | 230 | 10 | 20 | 50 | – | – | –
CC(C)C[C@@H]1NC(=O)[C@@H](N(C)C(=O)[C@@H](NC(=O)[C@@H]2C[C@@H](F)CN2C(=O)C2(C(F)(F)F)CCC2)C2CC2)CCCCCCCN(C)C(=O)[C@H](Cc2cc(F)cnc2OC2CC2)N(C)C1=O [Example 135] ({Cyclobutanecarbonyl(1-CF3)}-[Pro(trans-4-F)][Gly(cPr)][NMehhhLys(Me)]L[NMe3Pal(2-OcPr,5-F)]; lactam 3-C) | 20 | 120 | 30 | 20 | 80 | – | – | –
Cc1cc(-c2ccc(F)cc2C[C@H]2C(=O)NCCCCCCC[C@H](N(C)C(=O)[C@@H](NC(=O)[C@@H]3C[C@@H](F)CN3C(=O)C3(C(F)(F)F)CC(F)(F)C3)C3CC3)C(=O)N[C@@H](CC(C)C)C(=O)N2C)cnn1 [Example 294] ({cBuCO(3,3-F2-1-CF3)}-[Pro(trans-4-F)][Gly(cPr)][NMe(hhhLys)]L[X117]; lactam 3-C) | 130 | 1440 | 80 | 20 | 80 | – | – | –
CC(C)C[C@@H]1NC(=O)[C@@H](N(C)C(=O)[C@@H](NC(=O)[C@@H]2C[C@@H](F)CN2C(=O)C2(C(F)(F)F)CC(F)(F)C2)C2CC2)CCCCCCCN(C)C(=O)[C@H](Cc2cc(Cl)ccc2-c2cn(C)cn2)N(C)C1=O [Example 242] ({cBuCO(3,3-F2-1-CF3)}-[Pro(trans-4-F)][Gly(cPr)][NMehhhLys(Me)]L[X135]; lactam 3-C) | 20 | – | 30 | – | – | 700 | 20 | 30
